Earlier results in patent publication US7611910B2, “Method for diagnosis of alzheimer's disease” (Intracell, LLC, priority 1998, dated 2009).

Conditions: patients treated with indomethacin

COc1ccc2c(c1)c(CC(=O)O)c(C)n2C(=O)c1ccc(Cl)cc1 [indomethacin]
progression of Alzheimer's disease: reduced progression
